According to PMC10191551, “Safety, Tolerability, and Pharmacokinetics of Oral Ferric Maltol in Children With Iron Deficiency: Phase 1 Study” (JPGN Reports, 2021):

Legend:
[1] = Phase 1 study: iron uptake (serum iron and TSAT) after oral ferric maltol; assay type: in vivo, children; conditions: 7.8, 16.6, 30 mg b.d.
Description: Serum iron and TSAT provided measures of iron uptake.

[2] = cited from earlier work
[3] = set-up: method as in PMID 34029682; conditions: patients with CKD, over 16 weeks; ref [35]; cited from earlier work
[4] = Phase 1 study: safety and tolerability (adverse events, vital signs, ECG, laboratory tests, compliance) of oral ferric maltol; conditions: for Patients With an AE: Any AE: safety population
Description: This phase 1, randomized, open-label, parallel-group pharmacokinetic study involved children seen as outpatients at 6 centers in the UK: Alder Hey Children’s NHS Foundation Trust; King’s College Hospital NHS Foundation Trust; University Hospitals of Leicester NHS Trust; Nottingham University Hospitals NHS Trust; Manchester University NHS Foundation Trust; and University College London Hospitals NHS Foundation Trust. […] Children aged 16 years or older and parents or guardians of children younger than 16 years provided written informed consent to participate before study initiation.
Children aged 10–17 years with confirmed iron deficiency at screening (defined as either ferritin <30 µg/L or ferritin <50 µg/L with transferrin saturation [TSAT] <20%) were eligible for inclusion in the study. Patients with or without anemia could be enrolled, provided hemoglobin was ≥8.5 g/dL at screening. Girls of childbearing potential had to agree to use adequate contraception during and until 4 weeks after the end of the study.
The study comprised a screening period followed by a 10-day randomized treatment period and a post-treatment safety follow-up. Children were randomized 1:1:1 (stratified by age [10–14 vs 15–17 years] and sex) to ferric maltol 7.8 mg, 16.6 mg, or 30 mg twice daily (b.d.) for 9 days and once in the morning of day 10. The first and last doses of ferric maltol were taken in the presence of the investigator. Children took each dose with a glass of water 1 hour before or 2 hours after a meal. Doses were based on daily elemental iron requirements for the broad range of body weights of participants likely to be enrolled, with the aim of finding a minimum effective dose in this age group. The 30 mg b.d. adult dosage was chosen as the highest exposure; dosages of 16.6 mg b.d. and 7.8 mg b.d. were chosen as approximately one-half and one-quarter of the adult dose, respectively, with the exact dose depending on the full fill of available capsule shell sizes.
The primary objectives were to assess iron uptake and ferric maltol pharmacokinetics. Serum iron and TSAT provided measures of iron uptake. In adults, dissociated maltol undergoes rapid glucuronidation and is cleared in urine as maltol glucuronide (36); therefore, in this study, plasma maltol glucuronide was measured to confirm the rate of clearance in children. The secondary objective was to assess the safety and tolerability of ferric maltol in terms of vital signs, AEs, concomitant medications, 12-lead electrocardiograms, and clinical laboratory blood tests.
Safety analyses were conducted in all patients who received at least 1 dose of the study medication and had at least 1 subsequent visit (the safety population). […] Clinically significant changes from baseline in vital signs, physical examination, and routine clinical laboratory abnormalities were also recorded.

## Cc1occc(=O)c1[O-].Cc1occc(=O)c1[O-].Cc1occc(=O)c1[O-].[Fe+3] [Ferric maltol]
[1]
  Dose dependence of changes in serum iron concentrations: not dose-dependent
[1]; days 1 and 10, ITT population
  Iron uptake (serum iron and TSAT): increased iron uptake
[2]; patients with IBD, over 12 weeks, ref [19]
  Hemoglobin concentrations versus placebo: significantly increased hemoglobin concentrations compared with placebo
[2]; phase 3 trial in adults with IBD, ref [19],[20]
  Incidence of gastrointestinal TEAEs: 38%
[3]
  Hemoglobin and iron indices: statistical and clinically significant increases in hemoglobin and iron indices
[4]; 7.8 mg b.d. (n = 12)
  Patients With an AE: Any SAE: 0 (0.0) n (%)
  Patients With an AE: Any TEAE: 7 (58.3) n (%)
  Patients With an AE: TEAE leading to study discontinuation: 0 (0.0) n (%)
  Patients With an AE: TEAE related to study drug: 3 (25.0) n (%)
  Patients with a TEAE: Abdominal distension: 0 (0.0) n (%)
  Patients with a TEAE: Abdominal pain: 0 (0.0) n (%)
  Patients with a TEAE: Anal incontinence: 0 (0.0) n (%)
  Patients with a TEAE: Cellulitis: 1 (8.3) n (%)
  Patients with a TEAE: Constipation: 0 (0.0) n (%)
  Patients with a TEAE: Cough: 1 (8.3) n (%)
  Patients with a TEAE: Diarrhea: 2 (16.7) n (%)
  Patients with a TEAE: Dizziness: 0 (0.0) n (%)
  Patients with a TEAE: Dyspepsia: 0 (0.0) n (%)
  Patients with a TEAE: Dyspnea: 1 (8.3) n (%)
  Patients with a TEAE: Fatigue: 1 (8.3) n (%)
  Patients with a TEAE: Nausea: 1 (8.3) n (%)
  Patients with a TEAE: Nevus hemorrhage: 1 (8.3) n (%)
  Patients with a TEAE: Palpitations: 1 (8.3) n (%)
  Patients with a TEAE: Papule: 0 (0.0) n (%)
  Patients with a TEAE: Pyrexia: 0 (0.0) n (%)
  Patients with a TEAE: Skin abrasion: 0 (0.0) n (%)
  Patients with a TEAE: Sneezing: 1 (8.3) n (%)
  Patients with a TEAE: Tonsillitis: 0 (0.0) n (%)
  Patients with a TEAE: Vomiting: 1 (8.3) n (%)
  TEAEs by system organ class: Cardiac disorders: 1 (8.3) n (%)
  TEAEs by system organ class: Gastrointestinal disorders: 4 (33.3) n (%)
  TEAEs by system organ class: General disorders and administration-site conditions: 1 (8.3) n (%)
  TEAEs by system organ class: Injury, poisoning, and procedural complications: 0 (0.0) n (%)
  TEAEs by system organ class: Neoplasms benign, malignant, and unspecified: 1 (8.3) n (%)
  TEAEs by system organ class: Nervous system disorders: 1 (8.3) n (%)
  TEAEs by system organ class: Respiratory, thoracic, and mediastinal disorders: 3 (25.0) n (%)
  TEAEs by system organ class: Skin and subcutaneous-tissue disorders: 1 (8.3) n (%)
  Patients With an AE: Any AE: 7 (58.3) n (%)
[4]; 16.6 mg b.d. (n = 13)
  Patients With an AE: Any SAE: 0 (0.0) n (%)
  Patients With an AE: Any TEAE: 6 (46.2) n (%)
  Patients With an AE: TEAE leading to study discontinuation: 1 (7.7) n (%)
  Patients With an AE: TEAE related to study drug: 1 (7.7) n (%)
  Patients with a TEAE: Abdominal distension: 0 (0.0) n (%)
  Patients with a TEAE: Abdominal pain: 0 (0.0) n (%)
  Patients with a TEAE: Anal incontinence: 0 (0.0) n (%)
  Patients with a TEAE: Cellulitis: 0 (0.0) n (%)
  Patients with a TEAE: Constipation: 0 (0.0) n (%)
  Patients with a TEAE: Cough: 0 (0.0) n (%)
  Patients with a TEAE: Diarrhea: 0 (0.0) n (%)
  Patients with a TEAE: Dizziness: 1 (7.7) n (%)
  Patients with a TEAE: Dyspepsia: 0 (0.0) n (%)
  Patients with a TEAE: Dyspnea: 0 (0.0) n (%)
  Patients with a TEAE: Fatigue: 1 (7.7) n (%)
  Patients with a TEAE: Nausea: 0 (0.0) n (%)
  Patients with a TEAE: Nevus hemorrhage: 0 (0.0) n (%)
  Patients with a TEAE: Palpitations: 0 (0.0) n (%)
  Patients with a TEAE: Papule: 0 (0.0) n (%)
  Patients with a TEAE: Pyrexia: 0 (0.0) n (%)
  Patients with a TEAE: Skin abrasion: 1 (7.7) n (%)
  Patients with a TEAE: Sneezing: 0 (0.0) n (%)
  Patients with a TEAE: Tonsillitis: 1 (7.7) n (%)
  Patients with a TEAE: Vomiting: 1 (7.7) n (%)
  TEAEs by system organ class: Cardiac disorders: 0 (0.0) n (%)
  TEAEs by system organ class: Gastrointestinal disorders: 2 (15.4) n (%)
  TEAEs by system organ class: General disorders and administration-site conditions: 2 (15.4) n (%)
  TEAEs by system organ class: Injury, poisoning, and procedural complications: 1 (7.7) n (%)
  TEAEs by system organ class: Neoplasms benign, malignant, and unspecified: 0 (0.0) n (%)
  TEAEs by system organ class: Nervous system disorders: 3 (23.1) n (%)
  TEAEs by system organ class: Respiratory, thoracic, and mediastinal disorders: 0 (0.0) n (%)
  TEAEs by system organ class: Skin and subcutaneous-tissue disorders: 0 (0.0) n (%)
  Patients With an AE: Any AE: 7 (53.8) n (%)
[4]; 16.6 mg group, moderate tonsillitis, not related to study drug
  Children who discontinued the study early because of a TEAE: 1
[4]; 30 mg b.d. (n = 12)
  Patients With an AE: Any SAE: 0 (0.0) n (%)
  Patients With an AE: Any TEAE: 7 (58.3) n (%)
  Patients With an AE: TEAE leading to study discontinuation: 0 (0.0) n (%)
  Patients With an AE: TEAE related to study drug: 5 (41.7) n (%)
  Patients with a TEAE: Abdominal distension: 1 (8.3) n (%)
  Patients with a TEAE: Abdominal pain: 1 (8.3) n (%)
  Patients with a TEAE: Anal incontinence: 1 (8.3) n (%)
  Patients with a TEAE: Cellulitis: 0 (0.0) n (%)
  Patients with a TEAE: Constipation: 1 (8.3) n (%)
  Patients with a TEAE: Cough: 1 (8.3) n (%)
  Patients with a TEAE: Diarrhea: 1 (8.3) n (%)
  Patients with a TEAE: Dizziness: 2 (16.7) n (%)
  Patients with a TEAE: Dyspepsia: 1 (8.3) n (%)
  Patients with a TEAE: Dyspnea: 0 (0.0) n (%)
  Patients with a TEAE: Fatigue: 2 (16.7) n (%)
  Patients with a TEAE: Nausea: 1 (8.3) n (%)
  Patients with a TEAE: Nevus hemorrhage: 0 (0.0) n (%)
  Patients with a TEAE: Palpitations: 0 (0.0) n (%)
  Patients with a TEAE: Papule: 1 (8.3) n (%)
  Patients with a TEAE: Pyrexia: 1 (8.3) n (%)
  Patients with a TEAE: Skin abrasion: 0 (0.0) n (%)
  Patients with a TEAE: Sneezing: 0 (0.0) n (%)
  Patients with a TEAE: Tonsillitis: 0 (0.0) n (%)
  Patients with a TEAE: Vomiting: 0 (0.0) n (%)
  TEAEs by system organ class: Cardiac disorders: 0 (0.0) n (%)
  TEAEs by system organ class: Gastrointestinal disorders: 6 (50.0) n (%)
  TEAEs by system organ class: General disorders and administration-site conditions: 2 (16.7) n (%)
  TEAEs by system organ class: Injury, poisoning, and procedural complications: 1 (8.3) n (%)
  TEAEs by system organ class: Neoplasms benign, malignant, and unspecified: 0 (0.0) n (%)
  TEAEs by system organ class: Nervous system disorders: 5 (41.7) n (%)
  TEAEs by system organ class: Respiratory, thoracic, and mediastinal disorders: 1 (8.3) n (%)
  TEAEs by system organ class: Skin and subcutaneous-tissue disorders: 1 (8.3) n (%)
  Patients With an AE: Any AE: 7 (58.3) n (%)
[4]; Total, all doses (N = 37)
  Patients With an AE: Any SAE: 0 (0.0) n (%)
  Patients With an AE: Any TEAE: 20 (54.1) n (%)
  Patients With an AE: TEAE leading to study discontinuation: 1 (2.7) n (%)
  Patients With an AE: TEAE related to study drug: 9 (24.3) n (%)
  Patients with a TEAE: Abdominal distension: 1 (2.7) n (%)
  Patients with a TEAE: Abdominal pain: 1 (2.7) n (%)
  Patients with a TEAE: Anal incontinence: 1 (2.7) n (%)
  Patients with a TEAE: Cellulitis: 1 (2.7) n (%)
  Patients with a TEAE: Constipation: 1 (2.7) n (%)
  Patients with a TEAE: Cough: 2 (5.4) n (%)
  Patients with a TEAE: Diarrhea: 3 (8.1) n (%)
  Patients with a TEAE: Dizziness: 3 (8.1) n (%)
  Patients with a TEAE: Dyspepsia: 1 (2.7) n (%)
  Patients with a TEAE: Dyspnea: 1 (2.7) n (%)
  Patients with a TEAE: Fatigue: 4 (10.8) n (%)
  Patients with a TEAE: Feces discolored: 5 (13.5) n (%)
  Patients with a TEAE: Granuloma skin: 1 (2.7) n (%)
  Patients with a TEAE: Headache: 7 (18.9) n (%)
  Patients with a TEAE: Injection-site pain: 1 (2.7) n (%)
  Patients with a TEAE: Lethargy: 1 (2.7) n (%)
  Patients with a TEAE: Ligament sprain: 1 (2.7) n (%)
  Patients with a TEAE: Lip dry: 1 (2.7) n (%)
  Patients with a TEAE: Nasal congestion: 1 (2.7) n (%)
  Patients with a TEAE: Nasopharyngitis: 1 (2.7) n (%)
  Patients with a TEAE: Nausea: 2 (5.4) n (%)
  Patients with a TEAE: Nevus hemorrhage: 1 (2.7) n (%)
  Patients with a TEAE: Palpitations: 1 (2.7) n (%)
  Patients with a TEAE: Papule: 1 (2.7) n (%)
  Patients with a TEAE: Pyrexia: 1 (2.7) n (%)
  Patients with a TEAE: Skin abrasion: 1 (2.7) n (%)
  Patients with a TEAE: Sneezing: 1 (2.7) n (%)
  Patients with a TEAE: Tonsillitis: 1 (2.7) n (%)
  Patients with a TEAE: Vomiting: 2 (5.4) n (%)
  TEAEs by system organ class: Cardiac disorders: 1 (2.7) n (%)
  TEAEs by system organ class: Gastrointestinal disorders: 12 (32.4) n (%)
  TEAEs by system organ class: General disorders and administration-site conditions: 5 (13.5) n (%)
  TEAEs by system organ class: Injury, poisoning, and procedural complications: 2 (5.4) n (%)
  TEAEs by system organ class: Neoplasms benign, malignant, and unspecified: 1 (2.7) n (%)
  TEAEs by system organ class: Nervous system disorders: 9 (24.3) n (%)
  TEAEs by system organ class: Respiratory, thoracic, and mediastinal disorders: 4 (10.8) n (%)
  TEAEs by system organ class: Skin and subcutaneous-tissue disorders: 2 (5.4) n (%)
  Patients With an AE: Any AE: 21 (56.8) n (%)
[4]; all doses
  Changes from baseline in vital signs or 12-lead electrocardiogram results: No clinically meaningful changes
  Patients with laboratory abnormalities considered as TEAEs or SAEs: No patients
[4]; all doses, N = 37
  Children who experienced a TEAE: 54%
  Children with a TEAE related to the study drug: 24%
  Deaths or SAEs: no deaths or SAEs
  Drug-related TEAE anal incontinence: 1 patient
  Drug-related TEAE constipation: 1 patient
  Drug-related TEAE diarrhea: 2 n
  Drug-related TEAE dizziness: 2 n
  Drug-related TEAE dyspepsia: 1 patient
  Drug-related TEAE dyspnea: 1 patient
  Drug-related TEAE fatigue: 2 n
  Drug-related TEAE feces discoloration: 5 n
  Drug-related TEAE headache: 3 n
  Drug-related TEAE lethargy: 1 patient
  Drug-related TEAE nausea: 1 patient
  Drug-related TEAE palpitations: 1 patient
  Drug-related TEAE papule: 1 patient
  Gastrointestinal TEAEs, overall: 32%
  Nervous system disorders TEAEs, overall: 24%
  TEAE abdominal distension, number of children: 1 n
  TEAE abdominal pain, number of children: 1 n
  TEAE anal incontinence, number of children: 1 n
  TEAE constipation, number of children: 1 n
  TEAE diarrhea, number of children: 3 n
  TEAE dizziness, number of children: 3 n
  TEAE dyspepsia, number of children: 1 n
  TEAE fecal discoloration, number of children: 5 n
  TEAE headache, number of children: 7 n
  TEAE lethargy, number of children: 1 n
  TEAE nausea, number of children: 2 n
  TEAE vomiting, number of children: 2 n
[4]; all doses, N = 37, listed as ferric maltol
  Children who experienced a TEAE: 54.1%
[4]; all doses, all recovered or resolved
  Severity of TEAEs: mild or moderate
